13 compounds from ChEMBL document CHEMBL1201862, “PubChem BioAssay data set” (2004) can be followed below.

Holding throughout (assay): NCI-60 cell line screen, 48 h
For experiment [1], the system named is HL-60.
The test system of experiment [2] is SK-MEL-28.
In experiment [3] the test system is UO-31.
Experiment [4] has as its system SR.
The test system of experiment [5] is OVCAR-8.
Experiment [6] deals with CCRF-CEM.
The test system of experiment [7] is SF-539.
Experiment [8] has as its system NCI-H226.
Experiment [9] relates to UACC-257.
Experiment [10] relates to NCI-H522.
For experiment [11], the system named is HCT-116.
The test system of experiment [12] is A549.
Experiment [13] deals with 786-0.
Experiment [14] concerns SF-268.
Experiment [15] concerns NCI-H23.
Experiment [16] concerns LOX IMVI.

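Briefly, cells in 96-well plates were exposed to five compound concentrations for 48 h, and endpoints were estimated by linear interpolation. The concentration for 50% growth inhibition is given as GI50.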 Active and inactive are the calls of the source. Cut-off read from the data, not from the text of the source: active = GI50 up to about 1.1 µM and inactive = higher.

Regarding `COC[C@@H](/N=C/N1CCc2cc(OC)c(OC)cc2C1)C(C)(C)C`, the GI50 in [1], in experiment [2], in experiment [3], in [4], in experiment [5] and in experiment [6] was > 100 µM (inactive) each time. Besides, the GI50 in experiment [7], in experiment [8], in [9], in experiment [10], in experiment [11] and in experiment [12] was > 100 µM (inactive) throughout. Further, the GI50 in experiment [13], in [14] and in experiment [15] was > 100 µM (inactive) in each case.
For `CC(C)C(Nc1c2ccccc2nc2ccccc12)C(=O)O` (configuration not stated), the GI50 in experiment [1] was 52.6 µM (inactive); in experiment [16] it was 55.1 µM (inactive); in experiment [2], > 100 µM (inactive); in [3], 29.1 µM (inactive); in [4], 46.5 µM (inactive); in [5], > 100 µM (inactive). Further, the GI50 in [6] is > 100 µM (inactive); in experiment [7], > 100 µM (inactive); in experiment [8] it was > 100 µM (inactive); in experiment [9], > 100 µM (inactive); in experiment [10] it was > 100 µM (inactive); in experiment [11] it was 43.3 µM (inactive). Besides, the GI50 in experiment [12], in experiment [13], in experiment [14] and in [15] was > 100 µM (inactive) in each case.
Regarding `O=C1NC(c2ccccc2)(c2ccccc2)C(=O)N1CCCCCCN1C(=O)NC(c2ccccc2)(c2ccccc2)C1=O`, the GI50 in experiment [1] was > 100 µM (inactive); in experiment [16], 62.5 µM (inactive); in [2], 11 µM (inactive); in experiment [3], > 100 µM (inactive); in [5], 22.3 µM (inactive); in experiment [6] it was > 100 µM (inactive). Also, the GI50 in [7] was 18.6 µM (inactive); in experiment [8], > 100 µM (inactive); in [9] it was 26.2 µM (inactive); in experiment [10], 11.9 µM (inactive); in experiment [12], 21.2 µM (inactive); in experiment [13], 12.6 µM (inactive). For the same compound, the GI50 in experiment [14] was 21.5 µM (inactive); in experiment [15] it was 18.2 µM (inactive).
For `O=c1cc(-c2ccccc2)oc2cc(O)cc(O)c12` [CHRYSIN], the GI50 in experiment [1] was 16.8 µM (inactive); in [16], 14.7 µM (inactive); in experiment [2], 16.8 µM (inactive); in experiment [3] it was 20.4 µM (inactive); in [4] it was 23 µM (inactive); in [6] it was 19.4 µM (inactive). Also, the GI50 in [7] is 15.1 µM (inactive); in experiment [8] it was 20.6 µM (inactive); in experiment [9], 21.1 µM (inactive); in experiment [10] it was 15.9 µM (inactive); in experiment [11], 15.2 µM (inactive); in [12] it was 27 µM (inactive). Also, the values for the GI50 in experiment [13], in [14] and in experiment [15] were 23.6 µM (inactive), 23.1 µM (inactive) and 20.9 µM (inactive), respectively.
On to `CCN1CCC(O)(c2ccc(Cl)cc2)C(C(=O)c2ccc(Cl)cc2)C1` (configuration not stated), for which the GI50 is > 100 µM (inactive) in experiment [1]; > 100 µM (inactive) in experiment [16]; > 100 µM (inactive) in experiment [2]; 35.2 µM (inactive) in experiment [3]; 36.6 µM (inactive) in experiment [4]; > 100 µM (inactive) in experiment [5]. The GI50 in [6] was 49.5 µM (inactive); in [7], 26.2 µM (inactive); in [9], > 100 µM (inactive); in experiment [10] it was 20.4 µM (inactive); in experiment [11], > 100 µM (inactive); in experiment [12], > 100 µM (inactive). The GI50 in experiment [13], in experiment [14] and in [15] was > 100 µM (inactive) throughout.
For `O=C(N/C(=C\c1cccc([N+](=O)[O-])c1)c1nc2cc([N+](=O)[O-])ccc2[nH]1)c1ccccc1`, the GI50 in experiment [2] was 36.9 µM (inactive); in [3], 10.9 µM (inactive); in [4], 17.1 µM (inactive); in experiment [5], 31 µM (inactive); in experiment [6], 19.8 µM (inactive); in experiment [7], 29.4 µM (inactive). Also, the GI50 in experiment [10] was 18.3 µM (inactive); in experiment [12] it was 26.8 µM (inactive); in experiment [13] it was 36.1 µM (inactive); in experiment [14], 19.7 µM (inactive); in experiment [15], 27.3 µM (inactive).
On to `COC(=O)C1=C(c2ccc(OC)c(OC)c2)OC(c2ccc(OC)c(OC)c2)C1` (configuration not stated), for which the GI50 in experiment [1] is 9.82 µM (inactive); in [16], 19.5 µM (inactive); in experiment [2], 45.1 µM (inactive); in experiment [3], 28.8 µM (inactive); in experiment [4], 18.5 µM (inactive); in [5], 29.5 µM (inactive). Further, the GI50 was 31.4 µM (inactive) in experiment [6]; 33.4 µM (inactive) in [7]; 37 µM (inactive) in experiment [8]; 36.3 µM (inactive) in experiment [9]; 27.3 µM (inactive) in experiment [11]; 42.3 µM (inactive) in experiment [12]. Also, the GI50 in experiment [13] is 31.6 µM (inactive); in experiment [14] it was 35.6 µM (inactive); in [15], 48.5 µM (inactive).
Regarding `CCC12CCCN(Cc3ccccc3)C1c1c(n(C)c3ccccc13)C(C(=O)OC)C2` (configuration not stated), the GI50 in [1] was 87.3 µM (inactive); in [16] it was 158 µM (inactive); in experiment [2] it was > 239 µM (inactive); in experiment [4], 72.6 µM (inactive); in experiment [5] it was 169 µM (inactive); in experiment [6] it was 143 µM (inactive). For the same compound, the GI50 in experiment [7] was 126 µM (inactive); in [8], 66.2 µM (inactive); in experiment [9] it was 66.4 µM (inactive); in [10], 53.2 µM (inactive); in experiment [11], 51.6 µM (inactive); in [12], > 239 µM (inactive). Moreover, the GI50 was 206 µM (inactive) in experiment [13], 175 µM (inactive) in experiment [14] and 77.1 µM (inactive) in experiment [15].
On to `O=[N+]([O-])/C=C/c1ccc(Cl)cc1Cl`, for which the GI50 in experiment [1] is 5.26 µM (inactive); in experiment [2], 14.9 µM (inactive); in [3] it was 16.2 µM (inactive); in experiment [4], 11.4 µM (inactive); in experiment [5], 25.4 µM (inactive); in experiment [6], 3.62 µM (inactive). For the same compound, the GI50 is 17.1 µM (inactive) in experiment [7]; 17.6 µM (inactive) in experiment [8]; 13.4 µM (inactive) in experiment [9]; 14.6 µM (inactive) in experiment [10]; 3.44 µM (inactive) in experiment [11]; 21 µM (inactive) in [12]. Moreover, the GI50 is 15.6 µM (inactive) in experiment [13], 21.3 µM (inactive) in experiment [14] and 19.2 µM (inactive) in experiment [15].
Turning to `CS(=O)(=O)c1ccc(COP(N)(=O)N(CCCl)CCCl)cc1` (configuration not stated), the GI50 in experiment [16], in experiment [2], in experiment [3], in [4], in experiment [5] and in experiment [6] was > 100 µM (inactive) each time. For the same compound, the GI50 in experiment [7], in experiment [8], in experiment [9], in [10], in experiment [11] and in experiment [12] was > 100 µM (inactive) throughout. Moreover, the GI50 in experiment [13], in [14] and in experiment [15] was > 100 µM (inactive) each time.
On to `COC(=O)/C=C1/CCC2[C@@H](C(=O)CC3[C@]2(C)CCC[C@@]3(C)C(=O)OC)C1C` (some centres not stated), for which the GI50 was 2.61 µM (inactive) in experiment [1]; 13.3 µM (inactive) in experiment [2]; 15.1 µM (inactive) in experiment [3]; 12.3 µM (inactive) in experiment [5]; 3.56 µM (inactive) in experiment [6]; 14.9 µM (inactive) in [7]. Also, the GI50 in experiment [8] was 21.2 µM (inactive); in experiment [9], 10.4 µM (inactive); in experiment [10], 5.07 µM (inactive); in experiment [11], 5.79 µM (inactive); in experiment [12], 15.6 µM (inactive); in experiment [13], 14.9 µM (inactive). For the same compound, the GI50 in [14] is 15 µM (inactive); in experiment [15], 11.2 µM (inactive).
With `CC[C@H](C)C(=O)O[C@H]1C[C@@H](C)C=C2C=C[C@H](C)[C@H](CC[C@@H]3C[C@@H](O)CC(=O)O3)[C@H]21` [LOVASTATIN], the GI50 in [1] is 8.83 µM (inactive); in experiment [16], 1.58 µM (inactive); in experiment [2], 25 µM (inactive); in experiment [3], 6.27 µM (inactive); in experiment [4], 2.11 µM (inactive); in experiment [5], 7.83 µM (inactive). For the same compound, the GI50 is 18.4 µM (inactive) in experiment [6]; 11.9 µM (inactive) in experiment [8]; 20 µM (inactive) in experiment [9]; 21.2 µM (inactive) in experiment [12]; 9.77 µM (inactive) in experiment [13]; 1.02 µM (active) in [15].
As to `Cc1ccccc1C(C#N)/C(=N/NC(=O)C(=O)NN)C(=O)Nc1cccc(C(F)(F)F)c1` (configuration not stated), the GI50 in experiment [1], in experiment [2], in experiment [3], in experiment [4], in experiment [5] and in experiment [6] was > 100 µM (inactive) in each case. The GI50 in experiment [7], in experiment [8], in [9], in experiment [10], in experiment [11] and in experiment [12] was > 100 µM (inactive) in each case. The GI50 in experiment [13], in experiment [14] and in [15] was > 100 µM (inactive) throughout.
